Values quoted from earlier work as cited in US20080181955A1, “Natural dietary supplement and method for enhancing human libido” (priority 2007, published 2008).

What was measured:
[1] = oral
[2] = tested on: human endothelial NO synthase; conditions: polyphenolic constituents of red wine
nitric oxide (NO) = conditions: resveratrol alone
PDE-5 = PDE-5 (Homo sapiens, UniProt O76074); conditions: resveratrol alone

| SMILES | eNOS expression [2] | other results |
| --- | --- | --- |
| CN1CC(=O)N2[C@H](c3ccc4c(c3)OCO4)c3[nH]c4ccccc4c3C[C@@H]2C1=O [Tadalafil, tadalafil] |  | half-life [1]: about 17.5 hours |
| COc1cc(C(=O)O)ccc1O [vanilla acid] | enhanced eNOS expression moderately |  |
| Oc1ccc(C=Cc2cc(O)cc(O)c2)cc1 [resveratrol] |  | release of NO (nitric oxide (NO)): releases NO; effect on PDE-5 (PDE-5): no recognizable effect on PDE-5 |
| O=C(O)c1ccccc1 [benzoic acid] | enhanced eNOS expression moderately |  |
| CCCc1nn(C)c2c(=O)[nH]c(-c3cc(S(=O)(=O)N4CCN(C)CC4)ccc3OCC)nc12 [Sildenafil, sildenafil] |  | half-life [1]: about 4 hours |
| Oc1ccc(/C=C/c2cc(O)cc(O)c2)cc1 [trans-resveratrol] | most efficacious stimulator of eNOS expression |  |
| O=C(O)/C=C/c1ccc(O)c(O)c1 [caffeic acid] | enhanced eNOS expression moderately |  |
| O=C(O)/C=C/c1ccc(O)cc1 [p-coumaric acid] | enhanced eNOS expression moderately |  |
